This note sets out measurements from patent US20250382302A1, “Anticancer polyheterocyclic compounds and associated methods” (University of Denver, priority 2024, published 2025).

Structures are written as SMILES.

For assay [1], the system named is KM12. The conditions noted are these: Colon Cancer.
Assay [2] deals with KM12. Briefly: cells. The conditions noted are these: Homo sapiens.
In assay [3] the test system is K-562. Briefly: NCI five-dose testing, K-562. Particulars: for GI50 / CC50: Homo sapiens; for GI50: K562; for CC50: K562, read-out: LC50; for TGI: Leukemia, K-562.
Assay [4] deals with T-47D. In words: NCI five-dose testing, T-47D. Particulars: for TGI: Breast Cancer, T-47D; for GI50 / CC50: Homo sapiens, T47D; for CC50: read-out: LC50.
Assay [5] has as its system MOLT-4. In words: NCI five-dose testing, MOLT-4. The conditions noted are these: for GI50 / CC50: Homo sapiens; for GI50 / TGI: MOLT-4; for CC50: MOLT-4, read-out: LC50; for TGI: Leukemia.
The subject of assay [6] is OVCAR-3. In words: NCI five-dose testing, OVCAR-3. Particulars: for GI50 / CC50: Homo sapiens; for GI50 / TGI: OVCAR-3; for CC50: OVCAR-3, read-out: LC50; for TGI: Ovarian Cancer.
Assay [7] deals with CCRF-CEM. In words: NCI five-dose testing, CCRF-CEM. The conditions noted are these: for GI50 / CC50: Homo sapiens; for CC50: read-out: LC50; for TGI: Leukemia.
Assay [8] relates to NCI-H522. Briefly: NCI five-dose testing, NCI-H522. Particulars: for GI50 / CC50: Homo sapiens; for GI50 / TGI: NCI-H522; for CC50: NCI-H522, read-out: LC50; for TGI: Non-Small Cell Lung Cancer.
Assay [9] has as its system HL-60(TB). In words: NCI five-dose testing, HL-60(TB). The conditions noted are these: for GI50 / CC50: Homo sapiens; for GI50: HL-60; for CC50: HL-60, read-out: LC50; for TGI: Leukemia, HL-60(TB).
Assay [10] concerns RPMI-8226. Briefly: NCI five-dose testing, RPMI-8226. The conditions noted are these: for GI50 / CC50: Homo sapiens; for GI50 / TGI: RPMI-8226; for CC50: RPMI-8226, read-out: LC50; for TGI: Leukemia.
Assay [11] concerns MDA-MB-468. In words: NCI five-dose testing, MDA-MB-468. The conditions noted are these: for TGI: Breast Cancer; for TGI / GI50: MDA-MB-468; for GI50 / CC50: Homo sapiens; for CC50: MDA-MB-468, read-out: LC50.
Assay [12] deals with SR. In words: NCI five-dose testing, SR. Particulars: for GI50 / CC50: Homo sapiens; for CC50: read-out: LC50; for TGI: Leukemia.
In assay [13] the test system is MCF7. In words: NCI five-dose testing, MCF7. The conditions noted are these: for TGI: Breast Cancer; for TGI / GI50: MCF7; for GI50 / CC50: Homo sapiens; for CC50: MCF7, read-out: LC50.
For assay [14], the system named is SK-MEL-2. In words: NCI five-dose testing, SK-MEL-2. Type of assay: cell-based. Particulars: Melanoma.
Assay [15] has as its system SK-MEL-5. In words: NCI five-dose testing, SK-MEL-5. In kind it is cell-based. The conditions noted are these: Melanoma; for GI50 / CC50: Homo sapiens; for CC50: read-out: LC50 (the source's name).
For assay [16], the system named is OVCAR-4. Briefly: NCI five-dose testing, OVCAR-4. Particulars: for GI50 / CC50: Homo sapiens; for GI50 / TGI: OVCAR-4; for CC50: OVCAR-4, read-out: LC50; for TGI: Ovarian Cancer.
In assay [17] the test system is IGROV1. In words: NCI five-dose testing, IGROV1. Type of assay: cell-based. Particulars: for GI50 / CC50: Homo sapiens, IGROV-1, Ovarian Cancer; for CC50: read-out: LC50 (the source's name); for TGI: Ovarian Cancer.
The subject of assay [18] is EKVX. In words: NCI five-dose testing, EKVX. In kind it is cell-based. Particulars: Non-Small Cell Lung Cancer.
In assay [19] the test system is RXF 393. In words: NCI five-dose testing, RXF 393. Type of assay: cell-based. Particulars: Renal Cancer.
The mark [20] stands for this setting: Homo sapiens, read-out: LC50 (the source's name).

On to `COc1cccc(OC)c1N(Cc1ccoc1)C(=O)C(=O)NC1=CC(=O)c2ccccc2C1=O`, for which the TGI is 3.51 × 10^−6 in assay [1]; 2.80 × 10^−6 in [3]; 2.81 × 10^−6 in assay [4]; 1.57 × 10^−6 in assay [5]; 2.42 × 10^−6 in assay [6]; 1.48 × 10^−6 in assay [7]. In addition, the TGI in assay [8] is recorded as 2.61 × 10^−6; in [9], 5.69 × 10^−7; in assay [10], 2.57 × 10^−6; in assay [11], 8.99 × 10^−7. In addition, the concentration for 50% growth inhibition (GI50) (usually the concentration that inhibits growth by half) in assay [2] (KM12) was 1.25 µM; in assay [3], 1.46 µM; in assay [4] it was 1.48 µM; in assay [5], 0.462 µM; in [6], 1.18 µM; in [7], 0.437 µM. In addition, the GI50 in assay [8] is 1.33 µM; in [9], 0.282 µM; in assay [10], 1.3 µM; in assay [11], 0.251 µM. The CC50 in [2] (KM12, read-out: LC50) was 9.84 µM; in assay [3], 5.37 µM; in [4], 5.34 µM; in [5], 3.98 µM; in [6], 4.96 µM; in assay [7], 3.89 µM. For the same molecule, the CC50 in [8] is 5.14 µM; in assay [9], 1.48 µM; in assay [10], 5.12 µM; in assay [11], 3.02 µM.
With `COC1C[C@H]2C[C@]34CC3[C@H]2[C@]23C4C4=C(C(=O)c5ccccc5C4=O)N2C(=O)C(=O)N13` (stereo partly drawn), in [6], growth was halved (GI50) at 1.49 µM, the CC50 worked out at 19.6 µM and the TGI is 4.93 × 10^−6. In addition, in assay [11], the TGI is given as 3.18 × 10^−6, growth was halved (GI50) at 1.31 µM and the CC50 is 7.73 µM.
Regarding `COC1=C[C@H]2[C@H]3C[C@@H]1CN1C(=O)C(=O)N4C5=C(C(=O)c6ccccc6C5=O)[C@]3(OC)[C@]214`, the GI50 in assay [12] was 1.4 µM; in [13] it was 0.921 µM; in assay [10], 0.803 µM. Besides, the CC50 was 5.31 µM in assay [12], 8.87 µM in [13] and 4.71 µM in assay [10]. For the same molecule, the TGI was 2.72 × 10^−6 in assay [12], 2.94 × 10^−6 in [13] and 2.05 × 10^−6 in assay [10].
Take `C[C@]12C3=C(C(=O)c4ccccc4C3=O)N3C(=O)C(=O)N4C[C@H]5C[C@@]16CC6[C@@]5(C)[C@@]432` (stereo partly drawn): the GI50 in assay [14] (Homo sapiens) was 1.27 µM; in assay [15], 1.3 µM; in assay [16], 1.36 µM; in assay [7], 1.23 µM; in assay [9] it was 0.267 µM; in assay [11], 0.384 µM. Further, the CC50 in assay [14] (setting [20]) was 5.2 µM; in assay [15], 7.32 µM; in [16] it was 5.17 µM; in assay [7], 5 µM; in [9], 3.28 µM; in assay [11], 4.03 µM. Also, the TGI in [14] is 2.57 × 10^−6; in assay [15], 3.08 × 10^−6; in assay [16], 2.65 × 10^−6; in assay [7], 2.48 × 10^−6; in assay [9], 1.06 × 10^−6; in [11], 1.55 × 10^−6.
On to `C=CCN(C(=O)C(=O)NC1=CC(=O)c2ccccc2C1=O)c1ccsc1C(=O)OC`, for which the 50% growth inhibitory concentration (GI50) in [3] was 1.45 µM; in [4], 1.32 µM; in assay [5], 1.11 µM; in assay [7] it was 1.3 µM; in [8], 1.45 µM; in [9], 1.08 µM. The figures for the GI50 in assay [10] and in [11] were 1.47 µM and 0.226 µM, respectively. For the same molecule, the CC50 in assay [3] was 5.28 µM; in [4], 5.14 µM; in [5], 4.81 µM; in [7], 5.07 µM; in assay [8], 5.28 µM; in assay [9], 4.79 µM. The CC50 in assay [10] is 5.28 µM; in [11], 3.09 µM. Besides, the TGI in assay [3] is reported as 2.77 × 10^−6; in [4], 2.61 × 10^−6; in [5] it was 2.31 × 10^−6; in [7] it was 2.57 × 10^−6; in assay [8], 2.77 × 10^−6; in assay [9] it was 2.27 × 10^−6. Also, the TGI in [10] is 2.79 × 10^−6; in assay [11], 9.41 × 10^−7.
For `COC1=C[C@H]2C3=C(C(=O)c4ccccc4C3=O)N3C(=O)C(=O)N(Cc4ccco4)[C@]23C=C1`, in assay [15], the GI50 was determined as 1.13 µM, the CC50 was 9.08 µM and the TGI was 3.21 × 10^−6. In [17], the concentration for 50% growth inhibition (GI50) is 1.38 µM, the CC50 is ≥ 100 µM and the TGI was 6.38 × 10^−6. In addition, in [11], the TGI is recorded as 1.35 × 10^−6, it took 0.177 µM to inhibit growth by half (GI50) and the CC50 was 7.96 µM.
As to `C=CCCOC1=C[C@H]2C3=C(C(=O)c4ccccc4C3=O)N3C(=O)C(=O)N(Cc4ccc(C)cc4)[C@]23C=C1`, in assay [12], the GI50 came to 0.862 µM, the CC50 is ≥ 100 µM and the TGI is 1.00 × 10^−4. Besides, in assay [16], it took 0.875 µM to inhibit growth by half (GI50), the CC50 is ≥ 100 µM and the TGI was 7.04 × 10^−6. Besides, in assay [11], the TGI is reported as 6.86 × 10^−7, the GI50 was 0.0209 µM and the CC50 was ≥ 100 µM.
Turning to `COC1=CC2C3=C(C(=O)c4ccccc4C3=O)N3C(=O)C(=O)N(Cc4ccsc4)[C@]23C=C1` (stereo partly drawn), the concentration for 50% growth inhibition (GI50) in [18] (Homo sapiens) came to 1.11 µM; in assay [15], 0.01 µM; in [17], 1.27 µM; in assay [19] (Homo sapiens) it was 1.43 µM; in [13], 1.26 µM; in assay [11] it was 0.113 µM. For the same molecule, the CC50 in [18] (setting [20]) worked out at 25.7 µM; in [15] it was 6.04 µM; in [17], 70.5 µM; in [19] (setting [20]) it was 9.92 µM; in assay [13], 25.2 µM; in [11], 9.32 µM. Also, the TGI is 5.75 × 10^−6 in [18]; 2.16 × 10^−6 in [15]; 1.40 × 10^−5 in assay [17]; 3.76 × 10^−6 in assay [19]; 5.88 × 10^−6 in [13]; 8.16 × 10^−7 in [11].
For `O=C1C2=C(C(=O)c3ccccc31)N1C(=O)N(Cc3ccccc3)C[C@@]13C=C[C@@H]2O3`, in [4], the TGI is recorded as 3.26 × 10^−6, it took 1.39 µM to inhibit growth by half (GI50) and the CC50 came to 7.64 µM. In addition, in assay [11], the TGI was 1.59 × 10^−6, halving of growth (GI50) required 0.472 µM and the CC50 was 4.08 µM.
For `O=C1C=C(NC(=O)[C@H](Cc2ccccc2)n2cccc2)C(=O)c2ccccc21`, the TGI was 2.74 × 10^−6 in [4], 1.84 × 10^−6 in assay [5] and 2.32 × 10^−6 in assay [7]. For the same molecule, the GI50 was 1.42 µM in [4], 0.685 µM in [5] and 1.11 µM in assay [7]. Besides, the CC50 in [4] was 5.26 µM; in assay [5], 4.29 µM; in assay [7] it was 4.84 µM.
